Consider 21 molecules from ChEMBL document CHEMBL1909046, “DrugMatrix in vitro pharmacology data”.

One experiment addresses Nitric oxide synthase 1 (Rattus norvegicus, UniProt P29476). The format is tissue-based, Cerebellum.
Experiment [1] concerns the target T1, Alpha-1A adrenergic receptor (Rattus norvegicus, UniProt P43140).
T1 sequence (P43140 whole entry): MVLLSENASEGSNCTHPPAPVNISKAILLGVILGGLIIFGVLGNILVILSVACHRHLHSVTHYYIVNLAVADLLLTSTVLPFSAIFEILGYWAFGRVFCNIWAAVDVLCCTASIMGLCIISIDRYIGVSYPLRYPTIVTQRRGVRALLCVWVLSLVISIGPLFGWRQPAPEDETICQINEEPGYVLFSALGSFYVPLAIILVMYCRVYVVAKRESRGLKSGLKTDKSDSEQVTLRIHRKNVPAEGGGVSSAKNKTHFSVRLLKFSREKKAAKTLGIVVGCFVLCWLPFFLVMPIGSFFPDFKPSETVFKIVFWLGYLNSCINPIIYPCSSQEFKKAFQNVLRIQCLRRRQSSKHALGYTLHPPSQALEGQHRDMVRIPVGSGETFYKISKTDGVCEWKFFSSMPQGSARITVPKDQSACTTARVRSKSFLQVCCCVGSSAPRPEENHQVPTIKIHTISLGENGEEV
The experiment can be described thus: DRUGMATRIX: Alpha-1A adrenergic receptor radioligand binding (ligand: prazosin). The format is cell membranes, Wistar, Submaxillary gland, Membrane. The conditions noted are these: Not Active = under 50% inhibition at 10 µM.

Experiment [2] deals with Protein phosphatase 3 catalytic subunit alpha (Homo sapiens, UniProt Q08209). Also noted: species or system Escherichia coli.
Experiment [3] deals with T2, Polyunsaturated fatty acid lipoxygenase ALOX15 (Oryctolagus cuniculus, UniProt P12530).
T2 sequence (P12530 whole entry): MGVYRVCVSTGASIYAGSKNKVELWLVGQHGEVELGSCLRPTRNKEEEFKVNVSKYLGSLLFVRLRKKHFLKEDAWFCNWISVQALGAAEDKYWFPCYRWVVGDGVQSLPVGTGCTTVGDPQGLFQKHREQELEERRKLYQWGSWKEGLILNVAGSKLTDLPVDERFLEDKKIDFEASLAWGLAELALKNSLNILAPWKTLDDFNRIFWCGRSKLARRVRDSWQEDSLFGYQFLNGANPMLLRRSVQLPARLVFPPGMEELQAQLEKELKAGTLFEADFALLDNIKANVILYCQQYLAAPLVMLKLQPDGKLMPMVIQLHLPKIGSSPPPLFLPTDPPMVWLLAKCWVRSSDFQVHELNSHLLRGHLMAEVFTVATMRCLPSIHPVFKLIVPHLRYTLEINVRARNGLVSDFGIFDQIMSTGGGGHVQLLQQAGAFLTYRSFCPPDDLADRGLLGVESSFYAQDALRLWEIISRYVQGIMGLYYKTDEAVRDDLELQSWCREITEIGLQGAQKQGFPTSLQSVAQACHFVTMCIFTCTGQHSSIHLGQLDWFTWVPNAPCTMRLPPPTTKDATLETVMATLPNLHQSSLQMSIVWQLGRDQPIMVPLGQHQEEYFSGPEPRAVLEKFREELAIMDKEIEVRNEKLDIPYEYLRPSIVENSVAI
The experiment can be described thus: biochemical. The class given is tissue-based, Reticulocytes.

The nature of experiment [4]: DRUGMATRIX: Glutamate, Kainate radioligand binding (ligand: [3H] Kainic acid). The settings on record: Not Active = under 50% inhibition at 10 µM. The format is cell membranes, Rattus norvegicus, Wistar, Brain, Membrane.
Experiment [5] addresses 5-hydroxytryptamine receptor 6 (Homo sapiens, UniProt P50406). The format is cell membranes, HeLa, Membrane. The settings on record: hela.

Nitric oxide synthase 1, sequence (P29476 whole entry): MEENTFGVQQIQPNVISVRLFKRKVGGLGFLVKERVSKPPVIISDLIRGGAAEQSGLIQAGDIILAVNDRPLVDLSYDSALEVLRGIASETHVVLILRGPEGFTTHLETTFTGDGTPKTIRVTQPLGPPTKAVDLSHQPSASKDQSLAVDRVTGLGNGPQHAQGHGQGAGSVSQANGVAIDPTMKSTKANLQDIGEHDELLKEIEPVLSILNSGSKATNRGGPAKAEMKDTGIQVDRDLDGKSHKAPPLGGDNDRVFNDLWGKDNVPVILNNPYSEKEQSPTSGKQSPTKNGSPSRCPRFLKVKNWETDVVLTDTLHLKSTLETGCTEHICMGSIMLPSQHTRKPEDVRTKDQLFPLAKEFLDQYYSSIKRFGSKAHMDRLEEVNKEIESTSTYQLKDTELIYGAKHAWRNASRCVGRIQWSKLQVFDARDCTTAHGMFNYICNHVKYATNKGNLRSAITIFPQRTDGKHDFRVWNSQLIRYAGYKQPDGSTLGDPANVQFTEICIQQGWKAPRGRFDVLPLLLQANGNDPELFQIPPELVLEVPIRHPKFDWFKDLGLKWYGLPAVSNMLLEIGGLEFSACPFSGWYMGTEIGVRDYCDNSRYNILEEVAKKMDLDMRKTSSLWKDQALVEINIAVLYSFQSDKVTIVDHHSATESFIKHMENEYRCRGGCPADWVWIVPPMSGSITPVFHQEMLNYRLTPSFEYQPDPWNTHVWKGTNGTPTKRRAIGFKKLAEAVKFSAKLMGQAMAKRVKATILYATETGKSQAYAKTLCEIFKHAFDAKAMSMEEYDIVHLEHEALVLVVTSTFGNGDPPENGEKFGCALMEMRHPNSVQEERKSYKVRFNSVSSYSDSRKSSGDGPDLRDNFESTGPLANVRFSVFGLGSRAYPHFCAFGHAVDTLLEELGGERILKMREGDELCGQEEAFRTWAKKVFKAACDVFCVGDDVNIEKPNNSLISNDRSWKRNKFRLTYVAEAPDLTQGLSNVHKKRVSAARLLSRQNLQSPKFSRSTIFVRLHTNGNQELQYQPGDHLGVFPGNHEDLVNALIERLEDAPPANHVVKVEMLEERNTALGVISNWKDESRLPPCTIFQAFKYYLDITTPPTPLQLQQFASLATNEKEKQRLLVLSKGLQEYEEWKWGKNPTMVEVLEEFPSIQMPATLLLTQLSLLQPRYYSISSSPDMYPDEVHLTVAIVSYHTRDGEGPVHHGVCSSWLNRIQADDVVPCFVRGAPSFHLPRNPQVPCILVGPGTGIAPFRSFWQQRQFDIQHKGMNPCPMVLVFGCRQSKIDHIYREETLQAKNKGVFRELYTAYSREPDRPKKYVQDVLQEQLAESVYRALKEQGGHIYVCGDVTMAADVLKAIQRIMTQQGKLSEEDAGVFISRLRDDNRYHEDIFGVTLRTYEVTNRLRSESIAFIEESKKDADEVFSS
5-hydroxytryptamine receptor 6, sequence (P50406 whole entry): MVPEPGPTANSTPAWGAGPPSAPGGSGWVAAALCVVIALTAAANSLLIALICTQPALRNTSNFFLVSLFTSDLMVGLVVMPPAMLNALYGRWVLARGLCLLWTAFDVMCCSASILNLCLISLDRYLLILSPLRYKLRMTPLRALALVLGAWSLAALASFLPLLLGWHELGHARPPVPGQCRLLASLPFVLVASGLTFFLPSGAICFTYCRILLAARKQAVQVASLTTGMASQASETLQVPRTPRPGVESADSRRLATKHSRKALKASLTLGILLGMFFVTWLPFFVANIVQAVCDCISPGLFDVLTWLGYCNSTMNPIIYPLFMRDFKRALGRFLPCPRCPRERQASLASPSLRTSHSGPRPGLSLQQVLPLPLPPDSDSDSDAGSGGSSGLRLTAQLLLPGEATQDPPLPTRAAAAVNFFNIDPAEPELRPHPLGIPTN

In the case of `CCn1cc(C(=O)O)c(=O)c2cc(F)c(N3CCNCC3)nc21` [ENOXACIN], the IC50 result (against Nitric oxide synthase 1; in experiment [1]; in experiment [2]; in experiment [3] (reticulocytes); in experiment [4]; in experiment [5]) was “Not Active” in each case. For the same molecule, the Ki result in experiment [4] is on record as “Not Active”.

Turning to `CCC(=O)O[C@H]1[C@H](O[C@@H]2[C@@H](C)[C@H](O[C@H]3C[C@@](C)(OC)[C@@H](O)[C@H](C)O3)[C@@H](C)C(=O)O[C@H](CC)[C@@](C)(O)[C@H](O)[C@@H](C)C(=O)[C@H](C)C[C@@]2(C)O)O[C@H](C)C[C@@H]1N(C)C` [ERYTHROMYCIN PROPIONATE], the IC50 entry (against Nitric oxide synthase 1; in experiment [1]; in experiment [2]; in experiment [3] (reticulocytes); in experiment [4]; in experiment [5]) was “Not Active” in each case. The Ki result in experiment [4] was “Not Active”.

For the molecule `C=C(CC)C(=O)c1ccc(OCC(=O)O)c(Cl)c1Cl` [ETHACRYNIC ACID], the IC50 result (against Nitric oxide synthase 1; in experiment [1]; in experiment [2]; in experiment [3] (reticulocytes); in experiment [4]; in experiment [5]) was “Not Active” in each case. For the same molecule, the Ki result in experiment [4] is reported as “Not Active”.

Turning to `C#C[C@]1(O)CC[C@H]2[C@@H]3CCc4cc(O)ccc4[C@H]3CC[C@@]21C` [ETHINYL ESTRADIOL], the IC50 (commonly the midpoint of a concentration-inhibition curve) was “Not Active” against Nitric oxide synthase 1; “Not Active” in experiment [1]; “Not Active” in experiment [2]; 5.68 µM in experiment [3] (read-out: IC50); “Not Active” in experiment [4]; “Not Active” in experiment [5]. In addition, the Ki entry in experiment [4] was “Not Active”.

For `OCCO` [ETHYLENE GLYCOL], the IC50 result (at Nitric oxide synthase 1; in experiment [1]; in experiment [2]; in experiment [3] (reticulocytes); in experiment [4]; in experiment [5]) was “Not Active” throughout. In addition, in experiment [4], the Ki entry is “Not Active”.

Take `CC(=O)OCC(CCn1cnc2cnc(N)nc21)COC(C)=O` [FAMCICLOVIR]: the IC50 result (at Nitric oxide synthase 1; in experiment [1]; in experiment [2]; in experiment [3] (reticulocytes); in experiment [4]; in experiment [5]) was “Not Active” in each case. Also, the Ki result in experiment [4] was “Not Active”.

Turning to `O=C(O)Cc1ccc(-c2ccccc2)cc1` [FELBINAC], the IC50 entry (against Nitric oxide synthase 1; in experiment [1]; in experiment [2]; in experiment [3] (reticulocytes); in experiment [4]; in experiment [5]) was “Not Active” in each case. In addition, in experiment [4], the Ki result is given as “Not Active”.

Turning to `CCOC(=O)C1=C(C)NC(C)=C(C(=O)OC)C1c1cccc(Cl)c1Cl` (configuration not stated) [FELODIPINE], the IC50 result (against Nitric oxide synthase 1; in experiment [1]; in experiment [2]; in experiment [3] (reticulocytes); in experiment [4]; in experiment [5]) was “Not Active” each time. The Ki result in experiment [4] is “Not Active”.

As to `CC(C(=O)O)c1ccc(-c2ccccc2)c(F)c1` (configuration not stated) [FLURBIPROFEN], the IC50 result (against Nitric oxide synthase 1; in experiment [1]; in experiment [2]; in experiment [3] (reticulocytes); in experiment [4]; in experiment [5]) was “Not Active” each time. Further, the Ki entry in experiment [4] is “Not Active”.

On to `Cc1cn[nH]c1` [FOMEPIZOLE], for which the IC50 result (on Nitric oxide synthase 1; in experiment [1]; in experiment [2]; in experiment [3] (reticulocytes); in experiment [4]; in experiment [5]) was “Not Active” in each case. Besides, in experiment [4], the Ki result is given as “Not Active”.

For the molecule `NC[C@@H]1O[C@H](O[C@H]2[C@@H](O)[C@H](O[C@@H]3[C@@H](O)[C@H](N)C[C@H](N)[C@H]3O[C@H]3O[C@H](CN)[C@@H](O)[C@H](O)[C@H]3N)O[C@@H]2CO)[C@H](N)[C@@H](O)[C@@H]1O` [FRAMYCETIN], the IC50 result (against Nitric oxide synthase 1; in experiment [1]; in experiment [2]; in experiment [3] (reticulocytes); in experiment [4]; in experiment [5]) was “Not Active” in each case. Besides, the Ki result in experiment [4] was “Not Active”.

With `C[C@H]([C@](O)(Cn1cncn1)c1ccc(F)cc1F)S(C)(=O)=O` [GENACONAZOLE], the IC50 entry (against Nitric oxide synthase 1; in experiment [1]; in experiment [2]; in experiment [3] (reticulocytes); in experiment [4]; in experiment [5]) was “Not Active” in each case. Besides, in experiment [4], the Ki entry is “Not Active”.

For `Cc1c(F)c(N2CCNC(C)C2)cc2c1c(=O)c(C(=O)O)cn2C1CC1` (configuration not stated) [GREPAFLOXACIN], the IC50 result (against Nitric oxide synthase 1; in experiment [1]; in experiment [2]; in experiment [3] (reticulocytes); in experiment [4]; in experiment [5]) was “Not Active” in each case. Besides, in experiment [4], the Ki entry was “Not Active”.

For the molecule `COc1ccccc1OCC(O)CO` (configuration not stated) [GUAIFENESIN], the IC50 result (on Nitric oxide synthase 1; in experiment [1]; in experiment [2]; in experiment [3] (reticulocytes); in experiment [4]; in experiment [5]) was “Not Active” in each case. Further, the Ki result in experiment [4] was “Not Active”.

Take `C[C@]12CCC(=O)C=C1CC[C@@H]1[C@@H]2[C@@H](O)C[C@@]2(C)[C@H]1CC[C@]2(O)C(=O)CO` [HYDROCORTISONE]: the IC50 result (against Nitric oxide synthase 1; in experiment [1]; in experiment [2]; in experiment [3] (reticulocytes); in experiment [4]; in experiment [5]) was “Not Active” in each case. In addition, in experiment [4], the Ki entry is given as “Not Active”.

In the case of `C/C=C\c1ccc(O)c(OC)c1` [ISOEUGENOL], the IC50 entry (on Nitric oxide synthase 1; in experiment [1]; in experiment [2]; in experiment [3] (reticulocytes); in experiment [4]; in experiment [5]) was “Not Active” each time. Besides, the Ki result in experiment [4] is given as “Not Active”.

As for `NC[C@H]1O[C@H](O[C@H]2[C@H](O)[C@@H](O[C@H]3O[C@H](CO)[C@@H](O)[C@H](N)[C@H]3O)[C@H](N)C[C@@H]2N)[C@H](O)[C@@H](O)[C@@H]1O` [KANAMYCIN], the IC50 result (on Nitric oxide synthase 1; in experiment [1]; in experiment [2]; in experiment [3] (reticulocytes); in experiment [4]; in experiment [5]) was “Not Active” in each case. For the same molecule, the Ki result in experiment [4] is “Not Active”.

As to `CC[C@H](C)C(=O)O[C@H]1C[C@@H](C)C=C2C=C[C@H](C)[C@H](CC[C@@H]3C[C@@H](O)CC(=O)O3)[C@H]21` [LOVASTATIN], the IC50 entry (against Nitric oxide synthase 1; in experiment [1]; in experiment [2]; in experiment [3] (reticulocytes); in experiment [4]; in experiment [5]) was “Not Active” each time. Besides, in experiment [4], the Ki entry is listed as “Not Active”.

As to `CC(C(=O)O)c1ccc(CC2CCCC2=O)cc1` (configuration not stated) [LOXOPROFEN], the IC50 result (at Nitric oxide synthase 1; in experiment [1]; in experiment [2]; in experiment [3] (reticulocytes); in experiment [4]; in experiment [5]) was “Not Active” each time. Besides, in experiment [4], the Ki entry was “Not Active”.

Consider `Cc1cccc(Nc2ccccc2C(=O)O)c1C` [MEFENAMIC ACID], for which the IC50 entry (against Nitric oxide synthase 1; in experiment [1]; in experiment [2]; in experiment [3] (reticulocytes); in experiment [4]; in experiment [5]) was “Not Active” in each case. For the same molecule, the Ki entry in experiment [4] is on record as “Not Active”.

Consider `CC(=O)O[C@]1(C(C)=O)CC[C@H]2[C@@H]3C=C(C)C4=CC(=O)CC[C@]4(C)[C@H]3CC[C@@]21C` [MEGESTROL ACETATE], for which the IC50 entry (on Nitric oxide synthase 1; in experiment [1]; in experiment [2]; in experiment [3] (reticulocytes); in experiment [4]; in experiment [5]) was “Not Active” in each case. In addition, in experiment [4], the Ki result is on record as “Not Active”.
